Test results taken from ChEMBL document CHEMBL1151077, “Peptide mimics of glycylproline as inhibitors of prolidase” (Bioorg Med Chem Lett, 1995).
Peptide text beside a SMILES is read from it. * marks the point of attachment. Bz = O=C(c1ccccc1)*

Target: Angiotensin-converting enzyme (Homo sapiens, UniProt P12821+Q9BYF1)
Experiment: Inhibitory activity against angiotensin converting enzyme
Assay type: protein assay

SMILES: O=C(N[C@@H](Cc1ccccc1)C(=O)NCC(=O)N1CCC[C@H]1C(=O)O)c1ccccc1 (Bz-Phe-Gly-Pro-OH)
- IC50: 9.4 µM
